Where a SMILES comes first, the peptide text is derived from it. Bridges are numbered along the chain shown (N, C = ends). Where no end group is shown, it is not given here. [ ]: non-standard residue; d: D form.
Key:
[1] = tested on: DU145 cells; assay: CCK-8 cell proliferation, DU145 cells; assay type: cell-based, human; conditions: DU145, concentrations of 6.25 and 12.5 μM
Experimental: (§1) The cell lines, including DU145 (human prostate cancer cells, American Type Culture Collection/ATCC, Manassas, VA), LNCaP (human prostate cancer cells, ATCC, Manassas, VA), KYSE30 (human esophageal squamous cell carcinoma cells, ATCC, Manassas, VA), KYSE510 (human esophageal squamous cell carcinoma cells, ATCC, US), L02 (human normal liver cells, ATCC, Manassas, VA), and MCF‐7 (human breast cancer cells, ATCC, Manassas, VA) were cultured in DMEM medium (Thermo Gibco, Waltham, MA) with 10% FBS (Biological Industries, Israel). The SGC7901 (human gastric cancer cells, ATCC, Manassas, VA) cells were maintained in RPMI‐1640 medium (Thermo Gibco, Waltham, MA) with 10% FBS. All these cell lines were cultured at 37°C in a 5% CO2 cell incubator (Bio‐Rad, Hercules, CA). Subculture of these cell lines was employed with 0.25% trypsin (Thermo Gibco, Waltham, MA).
The cells were seeded at a density of 30 000 cells/mL based on cell counting performed with a cell counting plate. […]
(§2) Cell proliferation was evaluated using the Enhanced CCK‐8 cell proliferation and toxicity test kit (Meilunbio, China) according to the product specifications. Finally, the OD450 nm and OD630 nm were measured with an iMark dual wavelength microplate reader (Bio‐Rad, Hercules, CA), and the ratio of OD450 nm/OD630 nm was calculated.

[2] = tested on: DU145 cells; assay: Colony formation of DU145 cells; assay type: cell-based, human; conditions: 12.5 μM
Experimental: Cell colony formation was also employed to evaluate the effect of P5 and DcP5. The DU145 cells were seeded in six‐well plates (500 cells/well). The cultural supernatant was removed at 48 hours posttreatment, followed by washing with PBS three times. The cells were then fixed with 4% paraformaldehyde and air dried. Crystal violet staining was performed using solution (Sangon, China) as per the instructions. Then, photographs were taken, and spot amounts were calculated with an Invitrogen Countess II FL (Thermo, Waltham, MA) cell counter.
(§3) In our study, peptide cyclization was achieved by adding two cysteine residues to each end of the peptides. Cysteine is a chiral molecule. The natural cysteine is L‐cysteine, and a report has shown that introduction of unnatural D‐cysteine can theoretically improve the stability of the cyclic peptide in vivo.[41], [42], [43] Therefore, we designed and synthesized two cyclic peptides, DcP5 and LcP5, with two L‐cysteines or D‐cysteines at each end, respectively. The amino acid polymers of DcP5 and LcP5 were synthesized via the same organic chemistry as the P5 peptide. The cysteine‐ending peptides were spontaneously cyclized at 37°C in PBS (pH = 9.0) for 12 hours. […] Then, the binding affinity of these two cyclic peptides to FGFR2 was measured by ITC as described in Section 2.1. […]

[3] = tested on: FGFR2 knockdown DU145 cells; assay: Growth inhibition in FGFR2-knockdown (shFGFR2) DU145 cells; assay type: cell-based, human; conditions: DU145, shFGFR2 knockdown vs wild type
Experimental: The cells were seeded at a density of 30 000 cells/mL based on cell counting performed with a cell counting plate. Different concentrations of the P5 peptide were added to the cultural medium, followed by a 24‐hour incubation at 37°C in a 5% CO2 cell incubator (Bio‐Rad, Hercules, CA). Five replicates were set up for each experimental group.
as §2
The shFGFR2 plasmid was purchased from Sigma (St Louis, MO) (TRCN0000218493). One microliter Lip3000 (Lipofectamine 3000, Invitrogen, Carlsbad, CA) was mixed with 100 ng plasmid in nonserum DMEM medium before being added into the cultural DU145 cells. The cells were incubated with the Lip3000/plasmid solution for 6 hours, followed by DMEM with 10% FBS incubation. The transfected cells were then ready for growth‐inhibition experiment and RNA extraction for qPCR.

[4] = tested on: DU145 xenograft; assay: DU145 xenograft in nude mice, tumor growth; assay type: in vivo, BALB/C‐nu/nu mice; conditions: intratumoral injection once a day for 7 days, evaluated to Day 14, P5 10-25 mg/kg, DcP5 10, 25, 50 mg/kg, P5-3 50 mg/kg
Experimental: The specific pathogen‐free (SPF) level experimental male nude mice were purchased from the Animal Center of Guangdong Province (China), and the strain was BALB/C‐nu/nu. The animal experiments were conducted by the Animal Experimental Center of Jinan University (China) according to the National Institutes of Health guide for the care and use of Laboratory animals. The treatment and experimental procedure met the requirements of animal ethics.
(§4) DU145 cells with a density above 90% were harvested in to a microtube. The cell concentration was adjusted to 1 × 10^7 cells/mL, and two million cells were injected under the right arm of each individual. After injection, the tumors grew to a size of approximately 200 mm^3 in the following days. […] Animal models were randomly selected and assigned to each experimental group, and compounds were administered by intratumoral injections. The dosing regimen was one injection a day for 7 days. The length and width of the tumor were measured using a Vernier caliper once a day, and the animal's weight was recorded once a day from the beginning of the experiment. On Day 14, blood samples of each animal were collected, the tumor tissue was separated and weighed, and internal organs were collected. The tumor volume was calculated according to the formula V = ab ^2/2 (a refers to the length of the tumor, and b refers to the width).

[5] = tested on: heart, liver, spleen, lung, and kidney; assay: H&E staining of major organs of tumor-bearing mice; assay type: in vivo, BALB/C‐nu/nu mice; conditions: tumor-bearing mice at functional doses, paraffin sections
Experimental: as §4
Briefly, the connective tissue around the parenchyma organ was removed and washed three times in PBS, and the tissues were fixed with 10% formalin solution for 24 hours, followed by gradient ethanol dehydration. The tissues were then subjected to paraffin embedding. Sections of 4 μm thickness were prepared for H&E staining. H&E staining was performed according to the standard protocol of the H&E staining kit (Solarbio, China).

[6] = Body weight of tumor-bearing mice; assay type: in vivo, BALB/C‐nu/nu mice; conditions: various dosing regimens; data not shown
Experimental: as §4

[7] = tested on: FGFR2 on DU145 cells; assay: Immunofluorescence assay (IFA) of biotin-labeled peptide binding to DU145 cells; assay type: cell-based, human
Experimental: The binding affinity was analyzed under fluorescent microscope. GFP‐labeled DU145 cells were cultured to a density of 50%, followed by 4% paraformaldehyde fixation. After treated with 0.2% Triton X‐100, the cells were then blocked with 5% BSA. The incubation was performed by different treatments and SA‐PE‐TRITC was used as a fluorescent indicator; briefly, the FGFR2 mAb group (Abcam [Cambridge, MA] followed by PE‐TRITC‐labeled goat antimouse IgG for color development), and the blank group (equal amounts of PBS followed by SA‐PE‐TRITC as a fluorescent indicator were added). After adding the biotin‐labeled P5 peptide, biotin‐labeled P5‐3 peptide or anti‐FGFR2 mAb, the cells were incubated at 4°C overnight. After washing five times with PBST, the TRITC‐labeled streptavidin regent or TRITC‐labeled secondary antibody was introduced for another incubation at 25°C for 30 minutes in dark. Finally, the DAPI staining reagent was employed to stain the nucleus for 10 minutes in dark, followed by washing five times with PBS. After the addition of ProLong Antifade mounting medium (Thermo, Waltham, MA), a confocal microscope (OLS4100, Japan) was used for observation.

[8] = Peptide concentration in peripheral blood after administration; assay type: in vivo, BALB/C‐nu/nu mice; conditions: 25 mg/kg, serum; for time before blood concentration dropped below half C max: mice, biotin quantitation kit, sampled 0.5-24 hours postadministration
Experimental: as §4, with “On Day 14, blood samples of each animal were collected, the tumor tissue was separated and weighed, and internal organs were collected.” left out
Serum in the blood was separated and used to perform biotin quantitation with a Biotin Quantitation assay kit (MyBioSource, San Diego, CA) to calculate the concentration of the biotin‐peptide complex in the blood sample. Serum samples from the blank group were used as background controls, and serum of the 25 mg/kg‐dose P5 group and 25 mg/kg‐dose DcP5 group was examined in this step.

[9] = tested on: phosphorylated FGFR2, AKT, and ERK1/2; assay: Western blot of phosphorylated FGFR2, AKT and ERK1/2 in xenograft tumors; assay type: in vivo, BALB/C‐nu/nu mice; conditions: tumor tissue of xenograft mice
Experimental: DU145 cells with a density above 90% were harvested in to a microtube. The cell concentration was adjusted to 1 × 10^7 cells/mL, and two million cells were injected under the right arm of each individual. […] Animal models were randomly selected and assigned to each experimental group, and compounds were administered by intratumoral injections. The dosing regimen was one injection a day for 7 days. The length and width of the tumor were measured using a Vernier caliper once a day, and the animal's weight was recorded once a day from the beginning of the experiment. On Day 14, blood samples of each animal were collected, the tumor tissue was separated and weighed, and internal organs were collected. The tumor volume was calculated according to the formula V = ab ^2/2 (a refers to the length of the tumor, and b refers to the width).
Cell lysates were subjected to SDS‐PAGE for Western blotting. Briefly, cells were lysed with RIPA buffer (Thermo, Waltham, MA), followed by heat denaturation in 1X Laemmli SDS buffer (Sigma, St Louis, MO). For SDS‐PAGE 100 μg proteins were loaded to each lane. After electrophoresis, the proteins were transferred onto PVDF membranes, followed by blocking in 5% nonfat milk. […] The bands were quantified using Image Lab Software 6.0 (Bio‐Rad, Hercules, CA).

[10] = biological target: FGFR2 (Homo sapiens, UniProt P21802); assay: Isothermal titration calorimetry (ITC) binding to FGFR2 protein; conditions: in Figure 4A, read-out: KD, P5-FGFR2
Chain of FGFR2 (P21802 22-821): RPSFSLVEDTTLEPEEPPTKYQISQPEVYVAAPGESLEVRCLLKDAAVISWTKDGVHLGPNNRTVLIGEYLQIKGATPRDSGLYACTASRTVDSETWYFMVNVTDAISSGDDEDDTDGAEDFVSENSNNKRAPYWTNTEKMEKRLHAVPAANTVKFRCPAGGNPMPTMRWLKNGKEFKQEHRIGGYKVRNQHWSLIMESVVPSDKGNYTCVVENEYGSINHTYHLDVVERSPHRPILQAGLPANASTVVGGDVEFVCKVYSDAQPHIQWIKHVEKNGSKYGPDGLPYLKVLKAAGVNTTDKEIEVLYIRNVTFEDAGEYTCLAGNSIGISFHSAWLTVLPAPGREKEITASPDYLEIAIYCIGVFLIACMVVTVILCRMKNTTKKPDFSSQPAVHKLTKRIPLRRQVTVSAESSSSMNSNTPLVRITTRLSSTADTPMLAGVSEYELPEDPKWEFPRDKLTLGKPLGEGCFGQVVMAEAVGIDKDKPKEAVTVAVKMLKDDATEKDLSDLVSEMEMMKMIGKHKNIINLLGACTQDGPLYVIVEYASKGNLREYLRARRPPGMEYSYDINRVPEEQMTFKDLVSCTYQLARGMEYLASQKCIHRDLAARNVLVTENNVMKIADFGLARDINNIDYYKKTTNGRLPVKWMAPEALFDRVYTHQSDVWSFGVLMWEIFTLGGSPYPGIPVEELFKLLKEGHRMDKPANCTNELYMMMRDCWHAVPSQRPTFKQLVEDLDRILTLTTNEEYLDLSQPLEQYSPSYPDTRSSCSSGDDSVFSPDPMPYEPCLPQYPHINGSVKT
Experimental: A set of peptide candidates was designed with manual inspection, synthesized with a chemical dehydration reaction, and verified with MS. To screen the candidates, an in vitro binding assay using isothermal titration calorimetry (ITC) was performed against the FGFR2 protein using AutoiTC200 (MicroCal, MA). After the positive candidate was confirmed by ITC, three analog peptides with different mutant amino acids were designed to verify the active site previously determined. The binding affinity of each mutant analog to FGFR2 was measured using ITC and compared with the positive candidate.
as §3

[11] = tested on: L02 normal liver cells; assay: Toxicity toward L02 normal liver cells; assay type: cell-based, human; conditions: in vitro
Experimental: as §1, §2

Molecule | growth-inhibition rate relative to P5 [1] | colony number versus control group ([2]; 500 cells/well, crystal violet) | less colonies than cells exposed to P5 ([2]; P < .05) | growth inhibitory effect in FGFR2 knockdown cells compared to wild type cells [3] | tumor growth in xenograft [4] | toxicity toward heart, liver, spleen, lung, and kidney (H&E morphology) [5] | body weight versus other groups incl. blank [6] | fluorescent intensity of treated cells relative to P5 ([7]; IFA) | binding to FGFR2 on cells (IFA) ([7]; biotin-labeled peptide) | time before blood concentration dropped below half C max [8] | concentration in peripheral blood relative to P5 ([8]; 0.5 hour after administration, biotin quantitation kit (biotin-peptide)) | phosphorylation of FGFR2, AKT, and ERK1/2 [9] | Kd [10] | toxicity toward normal cells [11]
CC(C)C[C@@H]1NC(=O)[C@H](N)CSSC[C@H](C(=O)O)NC(=O)[C@H](CCCNC(=N)N)NC(=O)[C@H](CCC(=O)O)NC(=O)[C@H](CCC(=O)O)NC(=O)[C@H](C)NC(=O)[C@H](CCC(N)=O)NC(=O)[C@H](CC(C)C)NC(=O)[C@H](CCC(N)=O)NC1=O [DcP5] (H-[dC]LQLQAEER[dC]-OH; disulfide 1-10; N-terminus and C-terminus assumed) | stronger inhibition than P5 | significantly less than the control group | 20% | significantly decreased | significantly decreased the tumor size in dose‐dependent manner | remained normal | little difference in body weight | significantly stronger | bind to FGFR2 | 7 h | twice | reduced | – | –
LQLQAEER [P5] | – | – | – | – | – | negligible toxicity | little difference in body weight | – | – | 5 h | – | – | 490 nM | negligible toxicity

From article PMC8491194, “A cyclic peptide retards the proliferation of DU145 prostate cancer cells in vitro and in vivo through inhibition of FGFR2” (MedComm, 2020)
